Measured values reported in patent publication US8518383B2, “Oral care products comprising buffer systems for improved mineralization/remineralization benefits” (Wm. Wrigley Jr. Company, priority 2006, dated 2013).

Experiment: in-vitro pH cycling model, enamel microhardness (remineralization efficacy)
Set-up: species or system human
Method: The purpose of this test was to evaluate in-vitro efficacy of soluble calcium and phosphate combinations. Testing was conducted at the University of Indiana. Enamel specimens (3×3×3 mm diameter window) were removed from extracted human teeth and mounted on acrylic rods. The enamel surface was ground and polished using alumina slurry, rinsed with deionized water, and air dried. Artificial lesions were then formed in the enamel specimens by a 96 hr immersion in a partially saturated HAP acid buffer consisting of 0.1 mM lactic acid and 0.2 wt % Carbopol C907 adjusted to a pH of 5. Four baseline indentations per specimen were placed with a Vickers diamond at a 200 g load for 15 seconds and the indentation lengths had to be in a range from 25-45 microns. Enamel specimens (N=18 per treatment) were then cycled daily through a series of solutions repeated over an 8 day time period. Artificial saliva, acid challenge and pooled whole saliva solutions were prepared fresh daily. After treatment, the enamel microhardness was assessed and the difference between initial and final microhardness was calculated as a measure of remineralization efficacy. The data was then statistically analyzed with overall treatment comparisons calculated using an ANOVA model at α=0.05. Post ANOVA pairwise comparisons were made using a 2 tailed student t-test.
Artificial saliva with active treatments (1 hr, 4× daily)
Saliva treatment (0.05 ppm fluoride, 30 min daily)
Acid challenge (partially saturated HAP acid/carbopol buffer, Ph 5.0, 20 min., 3× daily)
Saliva film in a humid environment (overnight)
Comparison of Ca-citrate and Ca-citrate+Phosphate blend vs. Ca-lactate (see FIG. 1)

Compound: CC(O)C(=O)[O-].CC(O)C(=O)[O-].O.O.O.O.O.[Ca+2] (stereo not drawn) [CaLac (1500), Ca Lactate 5-hydrate]
- ΔVSMH (difference between initial and final enamel microhardness) (Ca 1500 ppm in artificial saliva, 1 hr 4x daily, 8 day pH cycling, mean, N=18): 5.99

Compound: CC(O)C(=O)[O-].CC(O)C(=O)[O-].[Ca+2] (stereo not drawn) [Ca-lactate]
- dose response of enamel rehardening (500 and 1500 ppm): No significant dose response

Compound: O=C([O-])CC(O)(CC(=O)[O-])C(=O)[O-].O=C([O-])CC(O)(CC(=O)[O-])C(=O)[O-].[Ca+2].[Ca+2].[Ca+2] [CaCit (811), Ca Citrate]
- ΔVSMH (difference between initial and final enamel microhardness) (Ca 811 ppm (0.38% salt) in artificial saliva, 1 hr 4x daily, 8 day pH cycling, mean, N=18): 29.65
- ΔVSMH (difference between initial and final enamel microhardness) (Ca 811 ppm (0.38% salt) in artificial saliva; 1 hr 4x daily, 8 day pH cycling; mean, N=18; 0.38%)): 29.55
- enamel rehardening, comparison in words (pairwise comparison of treatment groups, see value): higher enamel rehardening over Ca-lactate

Compound: CC(O)C(=O)[O-].CC(O)C(=O)[O-].O.O.O.O.O.[Ca+2] (stereo not drawn) [CaLac (500), Ca Lactate 5-hydrate]
- ΔVSMH (difference between initial and final enamel microhardness) (Ca 500 ppm in artificial saliva, 1 hr 4x daily, 8 day pH cycling, mean, N=18): 4.78
